Earlier results in US20240398763A1, “ORAL DOSAGE FORM CONTAINING ONCOLOGICAL ACTIVE INGREDIENT” (OWP Pharmaceuticals, Inc., priority 2023, published 2024).
Converted amounts (≈) assume the structure as drawn. Where a name gives a salt, the structure may show the parent alone.

Conditions: all pH solutions

Compound	Solubility [mg/mL]
Nc1cccc2c1C(=O)N(C1CCC(=O)NC1=O)C2=O (centres unmarked) [pomalidomide]	~0.01 (≈ 36.6 µM)

Same assay, conditions: approximate pH 5.0 and above

Compound	Solubility
CCOc1cc2ncc(C#N)c(Nc3ccc(OCc4ccccn4)c(Cl)c3)c2cc1NC(=O)/C=C/CN(C)C [neratinib]	(0.08 mg/mL or less)

Same assay, conditions: aqueous media over the range pH 1.1 to pH 7.8

Compound	Solubility
CNC(=O)c1ccccc1Sc1ccc2c(/C=C/c3ccccn3)n[nH]c2c1 [axitinib]	excess of 0.2 μg/mL

Same assay, conditions: aqueous media over the range pH 1.2 to pH 6.8

Compound	Solubility
CCN(CC)CCNC(=O)c1c(C)[nH]c(/C=C2\C(=O)Nc3ccc(F)cc32)c1C [sunitinib malate]	is in excess of 25 mg/mL

Same assay, conditions: aqueous media, pH 1.99

Compound	Solubility [mg/mL to]
CO[C@]1(C(=O)N[C@@H](C)c2ccc(-n3cc(F)cn3)nc2)CC[C@H](c2nc(C)cc(Nc3cc(C)[nH]n3)n2)CC1 [pralsetinib]	0.880

Same assay, conditions: aqueous media, pH 6.8

Compound	Solubility [mg/mL]
C=CC(=O)N1CCN(c2nc(=O)n(-c3c(C)ccnc3C(C)C)c3nc(-c4c(O)cccc4F)c(F)cc23)[C@@H](C)C1 [sotorasib]	0.03 (≈ 53.5 µM)

Same assay, conditions: aqueous media, pH 7.4

Compound	Solubility
C=C(F)C(=O)N1CCN(c2nc(OC[C@@H]3CCCN3C)nc3c2CCN(c2cccc4cccc(Cl)c24)C3)C[C@@H]1CC#N [adagrasib]	to <0.010 mg/mL

Same assay, conditions: at 25° C.

Compound	Solubility
CCCCCOC(=O)Nc1nc(=O)n([C@@H]2O[C@H](C)C(O)C2O)cc1F (stereo partly drawn) [capecitabine, pentyl ester [1-(5-deoxy-β-d-ribofuranosyl)-5-fluoro-1,2-dihydro-2-oxo-4-pyrimidinyl]-carbamic acid, reference compound]	6 mg/mL at 25 °C
CC(C)(C#N)c1cc(Cn2cncn2)cc(C(C)(C)C#N)c1 [anastrozole, α,α,α′,α′-tetramethyl-5-(1H-1,2,4-triazol-1-ylmethyl)-1,3-benzenediacetonitrile, reference compound]	solubility (0.5 mg/mL

Same assay, conditions: at 37° C.

Compound	Water solubility [°C is 0.63 mg/mL]
CN(C)CCOc1ccc(/C(=C(/CCCl)c2ccccc2)c2ccccc2)cc1 [toremifene citrate]	37

Same assay, conditions: at 37° C., in words

Compound	Aqueous solubility
O=C(Nc1cnn2ccc(N3CCC[C@@H]3c3cc(F)ccc3F)nc12)N1CC[C@H](O)C1 [larotrectinib]	freely soluble at pH 6.8)

Same assay, conditions: condition not given

Compound	Solubility
CN1CC[C@@H](NC(=O)Nc2ccc(C#N)cc2)C[C@@H]1c1nc2ccccc2[nH]1 [glasdegib]	1.7 mg/mL (≈ 4540 µM)
Nc1ncn([C@H]2C[C@H](O)[C@@H](CO)O2)c(=O)n1 [decitabine]	22.5 mg/mL; unknown
NC(=O)NO [hydroxyurea]	15 mg/mL (≈ 197000 µM)
CS(=O)(=O)CCNCc1ccc(-c2ccc3ncnc(Nc4ccc(OCc5cccc(F)c5)c(Cl)c4)c3c2)o1 [lapatinib]	0.007 mg/mL (≈ 12 µM)

Same assay, conditions: in water / aqueous media, in words

Compound	Solubility
O=C(Nc1ccc(OC(F)(F)Cl)cc1)c1cnc(N2CC[C@@H](O)C2)c(-c2ccn[nH]2)c1 [asciminib]	insoluble in water
CC1=C(/C=C/C(C)=C/C=C/C(C)=C/C(=O)O)C(C)(C)CCC1 [tretinoin]	insoluble in water
O=C(O)CCCc1ccc(N(CCCl)CCCl)cc1 [chlorambucil]	insoluble in water
COc1cc(N2CCC(N3CCN(C)CC3)CC2)ccc1Nc1ncc(Cl)c(Nc2ccccc2P(C)(C)=O)n1 [brigatinib]	insoluble in water
CS(=O)(=O)OCCCCOS(C)(=O)=O [busulfan]	insoluble in water
CO[C@@H]1[C@H](N(C)C(=O)c2ccccc2)C[C@H]2O[C@]1(C)n1c3ccccc3c3c4c(c5c6ccccc6n2c5c31)C(=O)NC4 [midostaurin]	insoluble in water
Cc1nccn1CC1CCc2c(c3ccccc3n2C)C1=O (centres unmarked) [ondansetron hydrochloride]	water soluble
COC(=O)N[C@@H](C)CNc1nccc(-c2cn(C(C)C)nc2-c2cc(Cl)cc(NS(C)(=O)=O)c2F)n1 [encorafenib]	slightly soluble at pH 1,
C1=C/COCc2cc(ccc2OCCN2CCCC2)Nc2nccc(n2)-c2cccc(c2)COC/1 [pacritinib]	insoluble in water
Cc1ccc(Nc2nccc(N(C)c3ccc4c(C)n(C)nc4c3)n2)cc1S(N)(=O)=O [pazopanib]	insoluble in water
CS(=O)(=O)c1ccc(Oc2cc(F)cc(C#N)c2)c2c1[C@H](O)[C@H](F)[C@@H]2F [belzutifan]	insoluble in water
O=P1(N(CCCl)CCCl)NCCCO1 (centres unmarked) [cyclophosphamide]	water soluble
CCN1CCN(Cc2ccc(Nc3ncc(F)c(-c4cc(F)c5nc(C)n(C(C)C)c5c4)n3)nc2)CC1 [abemaciclib]	insoluble in water
CN1CCC(COc2cnc(-c3cccc(Cn4nc(-c5cccc(C#N)c5)ccc4=O)c3)nc2)CC1 [tepotinib]	insoluble in water
Nc1cccc2c1CN(C1CCC(=O)NC1=O)C2=O (centres unmarked) [lenalidomide]	insoluble in water
N=C1CCCN1Cc1[nH]c(=O)[nH]c(=O)c1Cl [tipiracil hydrochloride]	water soluble; water
Nc1ncn([C@@H]2O[C@H](CO)[C@@H](O)[C@H]2O)c(=O)n1 [azacitidine]	water soluble
Clc1ccc(C(c2ccccc2Cl)C(Cl)Cl)cc1 (centres unmarked) [mitotane]	insoluble in water
Cc1nc(Nc2ncc(C(=O)Nc3c(C)cccc3Cl)s2)cc(N2CCN(CCO)CC2)n1 [dasatinib]	insoluble in water
Cn1ncnc1[C@H]1c2n[nH]c(=O)c3cc(F)cc(c23)N[C@@H]1c1ccc(F)cc1 [talazoparib tosylate]	insoluble in water
C=CC(=O)Nc1cc(Nc2nccc(-c3cn(C)c4ccccc34)n2)c(OC)cc1N(C)CCN(C)C [osimertinib]	insoluble in water
N[C@@H](Cc1cc(I)c(Oc2cc(I)c(O)c(I)c2)c(I)c1)C(=O)O [levothyroxine sodium]	insoluble in water
O=c1[nH]c(=O)n([C@H]2C[C@H](O)[C@@H](CO)O2)cc1C(F)(F)F [trifluridine]	water soluble; water

Compound	Solubility
COc1cc2ncnc(Nc3ccc(F)c(Cl)c3)c2cc1NC(=O)/C=C/CN1CCCCC1 [dacomitinib]	insoluble in water
CC[C@@]1(O)C(=O)OCc2c1cc1n(c2=O)Cc2cc3c(CN(C)C)c(O)ccc3nc2-1 [topotecan]	water soluble
CCCCCN(C)CCC(O)(P(=O)(O)O)P(=O)(O)O [ibandronate sodium]	water soluble
C=C(c1ccc(C(=O)O)cc1)c1cc2c(cc1C)C(C)(C)CCC2(C)C [bexarotene]	insoluble in water
Cc1cc(Nc2ncc(Cl)c(Nc3ccccc3S(=O)(=O)C(C)C)n2)c(OC(C)C)cc1C1CCNCC1 [ceritinib]	insoluble in water
Cn1cnc2c(F)c(Nc3ccc(Br)cc3F)c(C(=O)NOCCO)cc21 [binimetinib]	Slightly soluble at pH 1,
CN1CCN(c2ccc(C(=O)Nc3n[nH]c4ccc(Cc5cc(F)cc(F)c5)cc34)c(NC3CCOCC3)c2)CC1 [entrectinib]	insoluble in water
O=C(/C=C\n1cnc(-c2cc(C(F)(F)F)cc(C(F)(F)F)c2)n1)NNc1cnccn1 [selinexor]	insoluble in water
Sc1ncnc2nc[nH]c12 [mercaptopurine]	insoluble in water
CCc1cc2c(cc1N1CCC(N3CCOCC3)CC1)C(C)(C)c1[nH]c3cc(C#N)ccc3c1C2=O [alectinib]	insoluble in water
CN(C)C/C=C/C(=O)Nc1cc2c(Nc3ccc(F)c(Cl)c3)ncnc2cc1O[C@H]1CCOC1 [afatinib]	water soluble
COc1cc2nccc(Oc3ccc(NC(=O)Nc4cc(C)on4)c(Cl)c3)c2cc1OC [tivozanib]	insoluble in water
CN(Cc1cnc2nc(N)nc(N)c2n1)c1ccc(C(=O)N[C@@H](CCC(=O)O)C(=O)O)cc1 [methotrexate]	insoluble in water
CC(=O)O[C@]1(C(C)=O)CC[C@H]2[C@@H]3C[C@H](C)C4=CC(=O)CC[C@]4(C)[C@H]3CC[C@@]21C [medroxyprogesterone acetate]	insoluble in water
Cc1cc(Nc2ncnc3ccc(NC4=NC(C)(C)CO4)cc23)ccc1Oc1ccn2ncnc2c1 [tucatinib]	insoluble in water
CO[C@H]1C[C@@H]2CC[C@@H](C)[C@@](O)(O2)C(=O)C(=O)N2CCCC[C@H]2C(=O)O[C@H]([C@H](C)C[C@@H]2CC[C@@H](OCCO)[C@H](OC)C2)CC(=O)[C@H](C)/C=C(\C)[C@@H](O)[C@@H](OC)C(=O)[C@H](C)C[C@H](C)/C=C/C=C/C=C/1C [everolimus]	insoluble in water
CN(C)C(=O)c1cc2cnc(Nc3ccc(N4CCNCC4)cn3)nc2n1C1CCCC1 [ribociclib]	insoluble in water
C=CC(=O)N1CC[C@H](n2nc(C#Cc3cc(OC)cc(OC)c3)c3c(N)ncnc32)C1 [futibatinib]	insoluble in water
O=NN(CCCl)C(=O)NC1CCCCC1 [lomustine]	insoluble in water
CC(C)C(=O)Nc1ccc([N+](=O)[O-])c(C(F)(F)F)c1 [flutamide]	insoluble in water
COc1cc2nccc(Oc3ccc(NC(=O)NC4CC4)c(Cl)c3)c2cc1C(N)=O [lenvatinib]	slightly soluble in water
O=C(c1cc(Cc2n[nH]c(=O)c3ccccc23)ccc1F)N1CCN(C(=O)C2CC2)CC1 [olaparib]	low solubility

Same assay, conditions: in water at 25° C.

Compound	Solubility [mg per mL in]
CONC(=O)Nc1ccc(-c2sc3c(c2CN(C)C)c(=O)n(-c2ccc(OC)nn2)c(=O)n3Cc2c(F)cccc2F)cc1 [relugolix]	0.04

Same assay, conditions: pH 1

Compound	Solubility
Cc1cnc(Nc2ccc(OCCN3CCCC3)cc2)nc1Nc1cccc(S(=O)(=O)NC(C)(C)C)c1 [fedratinib]	condition (>100 mg/mL
CS(=O)(=O)c1ccc(C(=O)Nc2ccc(Cl)c(-c3ccccn3)c2)c(Cl)c1 [vismodegib]	0.99 mg/mL at pH 1

Same assay, conditions: pH 1.2

Compound	Solubility
C=C(F)C(=O)N1CCN(c2nc(OC[C@@H]3CCCN3C)nc3c2CCN(c2cccc4cccc(Cl)c24)C3)C[C@@H]1CC#N [adagrasib]	from >262 mg/mL
CCOc1cc2ncc(C#N)c(Nc3ccc(OCc4ccccn4)c(Cl)c3)c2cc1NC(=O)/C=C/CN(C)C [neratinib]	1.2 (32.90 mg/mL) and

Same assay, conditions: pH 1.6

Compound	Solubility
C[C@@H](Oc1cc(-c2cnn(C3CCNCC3)c2)cnc1N)c1c(Cl)ccc(F)c1Cl [crizotinib]	greater than 10 mg/mL

Same assay, conditions: pH 7

Compound	Solubility [μg/mL at pH 7 and]
CS(=O)(=O)c1ccc(C(=O)Nc2ccc(Cl)c(-c3ccccn3)c2)c(Cl)c1 [vismodegib]	0.1

Same assay, conditions: pH 7.4

Compound	Solubility
Cc1cnc(Nc2ccc(OCCN3CCCC3)cc2)nc1Nc1cccc(S(=O)(=O)NC(C)(C)C)c1 [fedratinib]	(4 mcg/mL at pH 7.4)
